How the values were obtained:
[1] = target: GST-tagged wild-type human CRBN protein (Homo sapiens (Human), UniProt Q96SW2); assay: Cereblon Binding Assay (Cisbio Cereblon Binding Kit, TR-FRET); conditions: about 3 hours at room temperature
Protocol: (§1) The binding to cereblon (CRBN) is determined using the Cereblon Binding Kit (Cisbio, #64BDCRBNPEG) following the manufacturer's instruction. Briefly, serially diluted compounds are incubated with GST-tagged wild-type human CRBN protein, XL665-labelled Thalidomide and Europium Cryptate labelled GST antibody.
as §1, with “(CRBN) was” for “(CRBN) is”, “compounds were” for “compounds are”, “GST antibody at room temperature for about 3 hours.” for “GST antibody.”

IKZF2 [2] = target: T1, IKZF2 (Homo sapiens (Human), UniProt Q96SW2+Q9UKS7); assay: IKZF2 HiBiT Assay (Jurkat-IKZF2-HiBiT cell line); type: cell-based; conditions: Jurkat-IKZF2-HiBiT cells, 24 hours; for DC50: read-out: HiBit assay degradation analysis DC50; for Dmax: read-out: HiBit assay degradation analysis Dmax
Outline: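 Jurkat cells carrying HiBiT-tagged IKZF2 were exposed to serially diluted compound for 24 h at 37 °C. Remaining IKZF2 was measured by Nano-Glo HiBiT lytic luminescence after 10-20 min at room temperature. Signal was normalized to DMSO, and IC50 came from a four-parameter variable-slope fit.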

[3] = target: His tagged CRBN+DDB−DLS7+CXU4 (Homo sapiens (Human), UniProt Q96SW2); assay: IC50 Measurements for Binding to CRBN/DDBI (HTRF); conditions: Cy5-labeled Thalidomide probe, one hour incubation
IKZF1 = IKZF1 (Homo sapiens (Human), UniProt Q13422+Q96SW2); assay: IKZF1 HiBit Assay (HEK293T Flp-in-HiBiT-IKZF1 stable cell line); type: cell-based; conditions: HEK293T Flp-in-HiBiT-IKZF1 cells, 6 hrs; for DC50: read-out: IKZF1 HiBit degradation DC50; for Dmax: HEK-293T, read-out: IKZF1 HiBit degradation Dmax
Outline: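 HEK293T Flp-in cells with CRISPR-inserted N-terminal HiBiT tag treated 6 h with 11-point threefold dilutions (0.1% DMSO). Nano-Glo HiBiT lytic luminescence normalised to DMSO gave the 50%-degradation concentration; Dmax taken as the luminescence range from highest to lowest concentration.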

IKZF2 [4] = target: T1, IKZF2; assay: IKZF2 HiBit Assay (HEK293T Flp-in-HiBiT cells); type: cell-based; conditions: HEK293T Flp-in-HiBiT cells, 6 hrs; for DC50: read-out: IKZF2 HiBit degradation DC50; for Dmax: HEK-293T, read-out: IKZF2 HiBit degradation Dmax
Outline: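 HEK293T Flp-in cells carrying CRISPR-inserted N-terminal HiBiT tag at the endogenous IKZF2 locus were treated with an 11-point, 3-fold dilution from 1 mM (stock) for 6 hrs; final DMSO 0.1%. HiBiT luminescence was detected after lysis with LgBiT/substrate reagent. DMSO-normalized curves gave 50% degradation concentration and Dmax.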

T1 sequence (Q9UKS7 whole entry): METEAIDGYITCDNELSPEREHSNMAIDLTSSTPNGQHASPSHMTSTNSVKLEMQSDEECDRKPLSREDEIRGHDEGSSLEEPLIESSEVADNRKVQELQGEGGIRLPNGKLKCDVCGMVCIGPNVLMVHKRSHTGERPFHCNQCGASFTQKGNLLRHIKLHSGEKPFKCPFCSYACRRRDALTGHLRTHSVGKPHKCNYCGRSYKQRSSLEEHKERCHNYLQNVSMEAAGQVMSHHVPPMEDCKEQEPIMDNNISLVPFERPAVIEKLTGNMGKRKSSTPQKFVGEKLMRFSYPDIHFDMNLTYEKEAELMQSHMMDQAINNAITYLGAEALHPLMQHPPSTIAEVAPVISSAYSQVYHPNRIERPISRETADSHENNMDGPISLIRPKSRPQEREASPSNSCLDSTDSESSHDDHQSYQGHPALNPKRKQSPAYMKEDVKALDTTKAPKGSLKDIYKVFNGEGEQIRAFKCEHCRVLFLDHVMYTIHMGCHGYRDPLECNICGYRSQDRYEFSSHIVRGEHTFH
T1 sequence (Q96SW2 whole entry): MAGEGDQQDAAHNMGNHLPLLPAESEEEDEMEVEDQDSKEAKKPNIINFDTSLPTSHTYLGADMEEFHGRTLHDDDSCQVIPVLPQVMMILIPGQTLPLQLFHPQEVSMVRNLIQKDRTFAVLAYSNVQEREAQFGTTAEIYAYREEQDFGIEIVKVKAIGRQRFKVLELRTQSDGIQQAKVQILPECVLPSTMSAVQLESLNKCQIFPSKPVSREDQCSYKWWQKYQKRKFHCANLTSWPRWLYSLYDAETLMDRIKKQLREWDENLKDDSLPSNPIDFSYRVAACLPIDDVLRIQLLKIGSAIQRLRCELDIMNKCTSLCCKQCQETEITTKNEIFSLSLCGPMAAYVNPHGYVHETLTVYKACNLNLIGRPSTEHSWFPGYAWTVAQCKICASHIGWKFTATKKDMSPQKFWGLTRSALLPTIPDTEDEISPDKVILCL
T1 sequence (Q16531 whole entry partner): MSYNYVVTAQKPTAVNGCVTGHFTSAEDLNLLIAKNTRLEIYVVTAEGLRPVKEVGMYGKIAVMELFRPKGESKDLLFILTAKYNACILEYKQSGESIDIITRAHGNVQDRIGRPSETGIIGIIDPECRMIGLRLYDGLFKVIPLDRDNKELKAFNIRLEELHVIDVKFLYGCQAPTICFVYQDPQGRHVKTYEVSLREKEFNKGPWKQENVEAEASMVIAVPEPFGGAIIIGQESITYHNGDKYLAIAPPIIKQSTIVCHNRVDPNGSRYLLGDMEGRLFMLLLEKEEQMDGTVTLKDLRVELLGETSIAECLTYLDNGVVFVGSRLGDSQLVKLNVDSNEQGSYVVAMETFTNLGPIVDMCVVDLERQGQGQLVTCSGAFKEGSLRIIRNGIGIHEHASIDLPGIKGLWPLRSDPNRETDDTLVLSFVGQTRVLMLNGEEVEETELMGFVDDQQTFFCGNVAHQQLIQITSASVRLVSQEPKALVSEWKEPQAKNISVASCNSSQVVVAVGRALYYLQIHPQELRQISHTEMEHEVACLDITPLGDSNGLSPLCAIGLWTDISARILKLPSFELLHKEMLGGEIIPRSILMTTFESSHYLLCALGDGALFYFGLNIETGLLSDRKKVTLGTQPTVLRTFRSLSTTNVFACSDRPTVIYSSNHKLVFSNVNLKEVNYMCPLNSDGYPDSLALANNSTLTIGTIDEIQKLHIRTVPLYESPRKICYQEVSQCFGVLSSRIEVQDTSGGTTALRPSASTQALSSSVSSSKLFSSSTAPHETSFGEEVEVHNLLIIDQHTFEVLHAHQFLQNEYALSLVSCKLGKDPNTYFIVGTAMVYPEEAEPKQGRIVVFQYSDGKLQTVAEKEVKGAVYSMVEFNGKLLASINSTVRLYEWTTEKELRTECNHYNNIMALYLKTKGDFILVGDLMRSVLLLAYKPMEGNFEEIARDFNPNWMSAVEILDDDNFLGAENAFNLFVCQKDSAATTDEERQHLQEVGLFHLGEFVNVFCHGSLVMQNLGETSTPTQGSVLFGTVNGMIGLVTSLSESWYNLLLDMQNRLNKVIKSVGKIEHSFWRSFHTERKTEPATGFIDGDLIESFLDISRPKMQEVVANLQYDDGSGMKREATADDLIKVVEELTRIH
Sequence of IKZF1 (Q13422 whole entry): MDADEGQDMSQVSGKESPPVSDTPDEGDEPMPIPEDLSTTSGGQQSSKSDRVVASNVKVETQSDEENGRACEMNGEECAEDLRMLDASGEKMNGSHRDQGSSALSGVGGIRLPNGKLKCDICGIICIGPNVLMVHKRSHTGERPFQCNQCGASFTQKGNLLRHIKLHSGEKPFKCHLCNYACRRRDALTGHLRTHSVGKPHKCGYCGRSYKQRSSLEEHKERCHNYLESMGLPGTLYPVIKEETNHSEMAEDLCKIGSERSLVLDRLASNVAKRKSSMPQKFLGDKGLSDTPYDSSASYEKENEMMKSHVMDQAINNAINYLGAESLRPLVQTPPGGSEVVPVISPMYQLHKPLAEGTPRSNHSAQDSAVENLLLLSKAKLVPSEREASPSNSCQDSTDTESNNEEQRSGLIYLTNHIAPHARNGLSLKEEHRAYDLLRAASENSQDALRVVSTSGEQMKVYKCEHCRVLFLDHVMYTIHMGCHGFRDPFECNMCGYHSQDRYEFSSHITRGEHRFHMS
Sequence of IKZF1 (Q96SW2 whole entry): as the sequence (Q96SW2 whole entry) above
Sequence of IKZF1 (Q16531 whole entry partner): as the sequence (Q16531 whole entry partner) above
Sequence of His tagged CRBN+DDB−DLS7+CXU4 (Q96SW2 whole entry): as the sequence (Q96SW2 whole entry) above
Sequence of His tagged CRBN+DDB−DLS7+CXU4 (Q16531 whole entry partner): as the sequence (Q16531 whole entry partner) above
Sequence of GST-tagged wild-type human CRBN protein (Q96SW2 whole entry): as the sequence (Q96SW2 whole entry) above

| Compound | IC50 [1] | DC50 (IKZF2 [2]) | Dmax (IKZF2 [2]) | IC50 [3] | DC50 (IKZF1) | Dmax (IKZF1) | DC50 (IKZF2 [4]) | Dmax (IKZF2 [4]) | IKZF1 HiBit degradation Dmax (IKZF1) | IKZF2 HiBit degradation Dmax (IKZF2 [4]) |
| --- | --- | --- | --- | --- | --- | --- | --- | --- | --- | --- |
| O=C1CCC(N2Cc3c(ccc4c3OCC43CCN(Cc4cccc(Cn5cccn5)c4)CC3)C2=O)C(=O)N1 (stereo not shown) [Compound A126, 3-(1′-(3-((1H-pyrazol-1-yl)methyl)benzyl)-6-oxo-6,8-dihydro-2H,7H-spiro[furo[2,3-e]isoindole-3,4′-piperidin]-7-yl)piperidine-2,6-dione] | 100 to 1000 nM | 200 to 500 nM | 40 to 60% |  |  |  |  |  |  |  |
| CCc1ccc(CN2CCC3(CCOc4c3ccc3c4CN(C4CCC(=O)NC4=O)C3=O)CC2)cc1 (stereo not shown) [Compound A11, 3-(1-(4-ethylbenzyl)-7′-oxo-2′,3′,7′,9′-tetrahydro-8′H-spiro[piperidine-4,4′-pyrano[2,3-e]isoindol]-8′-yl)piperidine-2,6-dione] | 10 to 100 nM | > 500 nM | 40 to 60% |  |  |  |  |  |  |  |
| O=C1CCC(N2Cc3c(ccc4c3OCC43CCN(Cc4cccc(-c5ccncc5)c4)CC3)C2=O)C(=O)N1 (stereo not shown) [Compound A133, 3-(6-oxo-1′-(3-(pyridin-4-yl)benzyl)-6,8-dihydro-2H,7H-spiro[furo[2,3-e]isoindole-3,4′-piperidin]-7-yl)piperidine-2,6-dione] | 100 to 1000 nM | < 50 nM | 60 to 80% |  |  |  |  |  |  |  |
| O=C1CCC(N2Cc3c(ccc4c3OCC43CCN(Cc4cccc5[nH]ccc45)CC3)C2=O)C(=O)N1 (stereo not shown) [Compound A87, 3-(1′-((1H-indol-4-yl)methyl)-6-oxo-6,8-dihydro-2H,7H-spiro[furo[2,3-e]isoindole-3,4′-piperidin]-7-yl)piperidine-2,6-dione] | 100 to 1000 nM | < 50 nM | > 80% |  |  |  |  |  |  |  |
| O=C1CCC(N2Cc3c(ccc4c3OCC43CCN(Cc4ccc(C(F)F)cc4)CC3)C2=O)C(=O)N1 (stereo not shown) [Compound A3, 3-(1′-(4-(difluoromethyl)benzyl)-6-oxo-6,8-dihydro-2H,7H-spiro[furo[2,3-e]isoindole-3,4′-piperidin]-7-yl)piperidine-2,6-dione] | 10 to 100 nM | > 500 nM | 40 to 60% |  |  |  |  |  |  |  |
| O=C1CCC(N2Cc3c(ccc4c3OCC43CCN(Cc4ccc5cc[nH]c5c4)CC3)C2=O)C(=O)N1 (stereo not shown) [Compound A129, 3-(1′-((1H-indol-6-yl)methyl)-6-oxo-6,8-dihydro-2H,7H-spiro[furo[2,3-e]isoindole-3,4′-piperidin]-7-yl)piperidine-2,6-dione] | 10 to 100 nM | < 50 nM | 60 to 80% |  |  |  |  |  |  |  |
| O=C1CCC(N2Cc3c(ccc4c3OCC43CCN(Cc4cc(Cl)cc5[nH]ncc45)CC3)C2=O)C(=O)N1 (stereo not shown) [Compound A128, 3-(1′-((6-chloro-1H-indazol-4-yl)methyl)-6-oxo-6,8-dihydro-2H,7H-spiro[furo[2,3-e]isoindole-3,4′-piperidin]-7-yl)piperidine-2,6-dione] | 100 to 1000 nM | 50 to 200 nM | 40 to 60% |  |  |  |  |  |  |  |
| O=C1CCC(N2Cc3c(ccc4c3OCC43CCN(Cc4cccc(CO)c4)CC3)C2=O)C(=O)N1 (stereo not shown) [Compound A98, 3-(1′-(3-(hydroxymethyl)benzyl)-6-oxo-6,8-dihydro-2H,7H-spiro[furo[2,3-e]isoindole-3,4′-piperidin]-7-yl)piperidine-2,6-dione] | 100 to 1000 nM | 50 to 200 nM | 60 to 80% |  |  |  |  |  |  |  |
| O=C1CCC(N2Cc3c(ccc4c3OCC43CCN(Cc4ccccc4)CC3)C2=O)C(=O)N1 (stereo not shown) [Compound A8, 3-(1′-benzyl-6-oxo-6,8-dihydro-2H,7H-spiro[furo[2,3-e]isoindole-3,4′-piperidin]-7-yl)piperidine-2,6-dione] | 100 to 1000 nM | 200 to 500 nM | 40 to 60% |  |  |  |  |  |  |  |
| O=C1CCC(N2Cc3c(ccc4c3OCC43CCN(Cc4cccc5ccccc45)CC3)C2=O)C(=O)N1 (stereo not shown) [Compound A27, 3-(1′-(naphthalen-1-ylmethyl)-6-oxo-6,8-dihydro-2H,7H-spiro[furo[2,3-e]isoindole-3,4′-piperidin]-7-yl)piperidine-2,6-dione] | 100 to 1000 nM | < 50 nM | > 80% |  |  |  |  |  |  |  |
| Cc1ccc(CN2CCC3(CCOc4c3ccc3c4CN(C4CCC(=O)NC4=O)C3=O)CC2)cc1 (stereo not shown) [Compound A12, 3-(1-(4-methylbenzyl)-7′-oxo-2′,3′,7′,9′-tetrahydro-8′H-spiro[piperidine-4,4′-pyrano[2,3-e]isoindol]-8′-yl)piperidine-2,6-dione] | 10 to 100 nM | > 500 nM | < 40% |  |  |  |  |  |  |  |
| CCn1cc(-c2cccc(CN3CCC4(CC3)COc3c4ccc4c3CN(C3CCC(=O)NC3=O)C4=O)c2)cn1 (stereo not shown) [Compound A145, 3-(1′-(3-(1-ethyl-1H-pyrazol-4-yl)benzyl)-6-oxo-6,8-dihydro-2H,7H-spiro[furo[2,3-e]isoindole-3,4′-piperidin]-7-yl)piperidine-2,6-dione] | 10 to 100 nM | < 50 nM | 60 to 80% |  |  |  |  |  |  |  |
| O=C1CCC(N2Cc3c(ccc4c3OCC43CCN(Cc4cccc(-c5cc[nH]n5)c4)CC3)C2=O)C(=O)N1 (stereo not shown) [Compound A160, 3-(1′-(3-(1H-pyrazol-3-yl)benzyl)-6-oxo-6,8-dihydro-2H,7H-spiro[furo[2,3-e]isoindole-3,4′-piperidin]-7-yl)piperidine-2,6-dione] | 10 to 100 nM | < 50 nM | 60 to 80% |  |  |  |  |  |  |  |
| O=C1CCC(N2Cc3c(ccc4c3OCC43CCN(Cc4cccc(-c5cnn(C6COC6)c5)c4)CC3)C2=O)C(=O)N1 (stereo not shown) [Compound A161, 3-(1′-(3-(1-(oxetan-3-yl)-1H-pyrazol-4-yl)benzyl)-6-oxo-6,8-dihydro-2H,7H-spiro[furo[2,3-e]isoindole-3,4′-piperidin]-7-yl)piperidine-2,6-dione] | 10 to 100 nM | < 50 nM | 60 to 80% |  |  |  |  |  |  |  |
| O=C1CC[C@H](N2Cc3c(ccc4c3OCC43CCN(Cc4cnn(-c5ccc(Cl)cc5)c4C(F)(F)F)CC3)C2=O)C(=O)N1 [Compound B1, (S)-3-(1′-((1-(4-chlorophenyl)-5-(trifluoromethyl)-1H-pyrazol-4-yl)methyl)-6-oxo-6,8-dihydro-2H,7H-spiro[furo[2,3-e]isoindole-3,4′-piperidin]-7-yl) piperidine-2,6-dione] |  |  |  | 500 to 1000 nM | 100 to 1000 nM | 20 to 40% | 1 to 10 nM | 40 to 60% |  |  |
| [2H]C([2H])([2H])n1cc(-c2cccc(CN3CCC4(COc5c4ccc4c5CN([C@H]5CCC(=O)NC5=O)C4=O)C(F)(F)C3)c2)cn1 (stereo partly drawn) [Compound B49, (3S)-3-(3′,3′-difluoro-1′-(3-(1-(methyl-d3)-1H-pyrazol-4-yl)benzyl)-6-oxo-6,8-dihydro-2H,7H-spiro[furo[2,3-e]isoindole-3,4′-piperidin]-7-yl) piperidine-2,6-dione] |  |  |  | 100 to 500 nM | > 1000 nM | < 20% | < 1 nM | > 80% |  |  |
| [2H]C([2H])([2H])n1cc(-c2cccc(CN3CCC4(CC3)COc3c4ccc4c3CN([C@H]3CCC(=O)NC3=O)C4=O)c2)cn1 [Compound B12, (S)-3-(1′-(3-(1-(methyl-d3)-1H-pyrazol-4-yl)benzyl)-6-oxo-6,8-dihydro-2H,7H-spiro[furo[2,3-e]isoindole-3,4′-piperidin]-7-yl)piperidine-2,6-dione] |  |  |  | 100 to 500 nM | > 1000 nM | < 20% | 1 to 10 nM | > 80% |  |  |
| Cn1cc(-c2cccc(CN3CCC4(CC3)COc3c4cc(F)c4c3CN([C@H]3CCC(=O)NC3=O)C4=O)c2)cn1 [Compound B16, (S)-3-(5-fluoro-1′-(3-(1-methyl-1H-pyrazol-4-yl)benzyl)-6-oxo-6,8-dihydro-2H,7H-spiro[furo[2,3-e]isoindole-3,4′-piperidin]-7-yl)piperidine-2,6-dione] |  |  |  | 100 to 500 nM | > 1000 nM | < 20% | 1 to 10 nM | 40 to 60% |  |  |
| (3S)-3-(1′-((1H-indazol-6-yl)methyl)-3′,3′-difluoro-3-oxo-1,3,7,8-tetrahydro-2H-spiro[cyclopenta[e]isoindole-6,4′-piperidin]-2-yl)piperidine-2,6-dione [Compound B33] |  |  |  | 100 to 500 nM | > 1000 nM |  | 1 to 10 nM |  | C (C: <20%) | B (B: 60-80%) |

Source: patent US20250215012A1, “IKZF2 DEGRADERS AND USES THEREOF” (REGENTS OF THE UNIVERSITY OF MICHIGAN, priority 2022, published 2025)
